{
  "source": "patent US11767278B2",
  "about": "“Plant extract compositions for forming protective coatings” (Apeel Technology, Inc., priority 2015, dated 2023)",
  "tested_on": "avocados",
  "experiment": "Mass loss rates of avocados coated with compounds extracted by thermal depolymerization of cutin",
  "parameters": "species or system avocado",
  "details": "unpeeled avocados dipped in 10 mg/mL solution in ethanol, humidity about 40%-55%",
  "experimental": "Protective coatings were formed over avocados by extracting compounds by method described herein (thermal depolymerization of cutin) and depositing the compounds over the outer surface of the (unpeeled) avocados. The mass loss rates of the avocados were then measured and compared to those of uncoated avocados. All coatings were formed by dipping the avocados in a solution comprising the associated compounds dissolved in substantially pure ethanol at a concentration of 10 mg/mL, placing the avocados on drying racks, and allowing the avocados to dry under ambient room conditions at a temperature in the range of about 23° C.-27° C. and humidity in the range of about 40%-55%. The avocados were held at these same temperature and humidity conditions for the entire duration of the time they were tested.\nMass loss rates are shown in FIG. 16 for untreated (e.g., uncoated) avocados in bar 1602, for avocados coated with ethyl 10,16-dihydroxyhexadecanoate (referred to as “EtDHPA”) in bar 1604, and for avocados coated with a mixture of EtDHPA and 1,3-dihydroxypropan-2-yl hexadecanoate (referred to as “PA-2G”) in bar 1606, where for bar 1606 the EtDHPA and PA-2G were mixed at a mass ratio of 30:70. […]",
  "data": [
    {"smiles": "CCOC(=O)CCCCCCCCC(O)CCCCCCO", "note": "(centres unmarked) [EtDHPA, ethyl 10,16-dihydroxyhexadecanoate]", "values": [
      {"measurement": "average rate of mass decrease of coated avocados (mass loss rate)", "setting": "dried, held at about 23-27 °C, group of 30 avocados, FIG. 16", "value": "about 1.06 % per day"},
      {"measurement": "reduction of average mass loss rate as compared to the uncoated avocados", "setting": "about 23-27 °C, uncoated avocados about 1.21% per day", "value": "more than 12%"}
    ]}
  ]
}
